Assay results reported in EP0123157B1, “Medicaments and/or foodstuff concentrates with an anti-bacterial activity” (EGIS GYOGYSZERGYAR, priority 1983, dated 1984).
Converted amounts (≈) assume the structure as drawn. Like-named read-outs stand apart in the source and are kept apart here.

Experiments:
Assay in all cases: Minimum inhibitory concentration (MIC) in vitro in broth containing phenol red and glucose
Type in all cases: cell-based
[1] = tested on: Listeria monocytogenes; conditions: read-out: Werte der Mindesthemmkonzentration [MIC-Werte]
Source text: (§1) Die Mindesthemmkonzentration (MIC-Werte) der Kombination der 3 obigen Wirkstoffe und der einzelnen obigen Wirkstoffe wurden in vitro gegen die Bakterienstämme Escherichia coli 494, Bordatella bronchiseptica, Staphylococcus aureus und Listeria monocytogenes in einer Phenolrot und Glucose enthaltenden Brühe [Hersteller: Firma Difca] bestimmt.

[2] = tested on: Staphylococcus aureus; conditions: read-out: Werte der Mindesthemmkonzentration [MIC-Werte]
Source text: as §1

[3] = tested on: Bordatella bronchiseptica; conditions: read-out: Werte der Mindesthemmkonzentration [MIC-Werte]
Source text: as §1

[4] = tested on: Gegen Chloramphenicol resistenter Stamm Escherichia coli 494; conditions: single substance; inhibits bacterial growth for 24 hours; chloramphenicol-resistant Escherichia coli 494; read-out: Werte der Mindesthemmkonzentration [MIC-Werte]
Source text: as §1

[5] = single substance, inhibits bacterial growth for 24 hours
[6] = single substance, inhibits bacterial growth for 24 hours, Bordatella bronchiseptica

SMILES	MIC [1, 5]	MIC [2, 5]	MIC [3, 6]	MIC [4]	MIC ([1]; 24 h)	MIC ([2]; 24 h)	MIC ([3]; 24 h)
Cc1ccc2c(Cl)cc(Cl)c(O)c2n1 [Chlorchinaldol, 2-(Methyl)-5,7-di-(chlor)-8-(hydroxy)-chinolin]	5 µg/mL (≈ 21.9 µM)	5 µg/mL (≈ 21.9 µM)	5 µg/mL (≈ 21.9 µM)	200 µg/mL (≈ 877 µM)			
CN(C)CCCN1c2ccccc2Sc2ccc(Cl)cc21 [Chlorpromazin, 2-Chlor-10-[3-(dimethylamino)-propyl]-phenothiazin]				50 µg/mL (≈ 157 µM)	25 µg/mL (≈ 78.4 µM)	25 µg/mL (≈ 78.4 µM)	200 µg/mL (≈ 627 µM)
COc1cc(Cc2cnc(N)nc2N)cc(OC)c1OC [Trimethoprim, 2,4-Diamino-5-[3', 4', 5'-tri-(methoxy)-benzyl]-pyrimidin]	50 µg/mL (≈ 172 µM)	100 µg/mL (≈ 344 µM)	50 µg/mL (≈ 172 µM)	25 µg/mL (≈ 86.1 µM)			
